Data set [1] relates to angiotensin converting enzyme (ACE) from the housefly Musca domestica. The data set is described as follows: ACE enzyme hydrolysis trials. Type of data set: in vitro ADME. The settings on record: pH 8.3, 37° C., over 120 minutes. How it is done:
Musca ACE (Mr, 67,000) was purified from a soluble extract of adults as described elsewhere (Cornell et al., J. Biol. Chem., in press; Lamango and Isaac, J. Biol. Chem., in press) and yielded enzyme which appeared as a single band by SDS-PAGE. Unless otherwise stated, peptides (12-750 μM, final concentration) were incubated with Musca ACE in 100 mM Tris/HCl, pH 8.3 in the presence of 10 μM ZnCl2 and 0.3M NaCl at 37° C. Reactions (15 μl) were terminated either by heating to 100° C. for 5 min or by the addition of 5 μl of 8% (v/v) TFA, followed by centrifugation (13000 g, Microcentaur) for 2 min and diluted to 100 μl with 0.1% (v/v) TFA before HPLC analysis.
HPLC analysis was performed using a Pharmacia SuperPac Pep-S column (250 mm×4 mm, internal diameter) packed with 5 μm ODS particles. The solvent system comprised elution with 5% acetonitrile in 0.1% (v/v) trifluoroacetic acid for 3 min, followed by a linear increase of the acetonitrile component from 3 to 41% in 11 min (total run time of 14 min).

Data set [2] concerns isolated Malpighian tubules of the cricket Acheta domesticus. The experiment in a line: Cricket Malpighian tubule secretion bioassay. As to conditions: for Cricket Malpighian tubule fluid secretion Maximum response (%): percentage of the response to a supermaximal dose (10 nM) of achetakinin-I, Aib analogs. The format is cell-based. The source says: Crickets were reared as described (Clifford et al., 1977, Ann. Entomol. Soc. Am., 70:69-74) and fed a diet of turkey starter crumbs. Water was provided ad lib. Malpighian tubules were removed from 6-12-day-old adult virgin females. Single tubules were isolated in vitro as described (Coast, G. M., 1988, Physiol. Entomol., 13:381-391). After a 40-min equilibration period, the bathing fluid was changed and the rate of secretion, in picoliters per millimeter length of tubule per minute (pl/mm/min), was determined over 40 min (control rate). Thereafter, the bathing fluid was exchanged for one containing the assay material and the rate of secretion was determined over an additional 40-min period (experimental rate). Diuretic activity was calculated as the difference between control and experimental rates, and results are expressed as a percentage of the response obtained with a supermaximal dose (10 nM) of achetakinin-I assayed alongside the test analogues. All experiments were performed at room temperature (21°-24° C.) (Coast et al., 1990, ibid).

Data set [3] relates to isolated Leucophaea maderae cockroach hindgut. The data set is described as follows: Cockroach hindgut myotropic bioassay. The settings on record: for potency in the cockroach hindgut myotropic assay relative to the most potent of the achetakinins (AK-IV): comparison of threshold concentrations; for Cockroach (Leucophaea maderae) hindgut contraction threshold (pM) ± (S.D.): minimum concentration evoking observable change in contractions, Aib analogs; for threshold activities on the isolated cockroach hindgut bioassay: values in M. The format is cell-based. How it is done: Leucophaea maderae cockroaches were taken from stock colonies maintained at 27° C. and fed dry dog food ad lib. Cockroach hindguts, free of central nervous system (CNS) tissue, were dissected, immersed in saline, and prepared for recording of myogenic activity as previously described [Holman et al., 1991, Insect Biochem., 21(1):107-112]. Threshold concentrations were determined for each analogue by adding a known quantity of peptide (dissolved in 0.5 ml bioassay saline) to the bioassay chamber containing the hindgut and observing the response on a Gould 2200S oscillograph recorder. The quantity of the peptide analogues was calculated from the values obtained for Phe in the amino acid analysis. The threshold concentration was defined as the minimum concentration of peptide in the chamber required to evoke an observable change in the frequency (50%) or amplitude of contractions (5%) within 1 min and sustained for 3 min. Threshold concentrations were obtained from five cockroach hindguts on 5 consecutive days for each peptide. Quantitative data for dose-response plots were obtained as previously described (Holman et al., 1991, ibid).

The test system is the same in data set [4]. The settings on record: cited from earlier work; for Cockroach (Leucophaea maderae) hindgut contraction threshold (pM) ± (S.D.): naturally occurring achetakinins, Holman et al., 1990, reference (12); for potency in hindgut myotropic assay relative to parent or natural insect kinins: literature (Holman et al., 1987; Nachman et al., 1994).
Data set [5] concerns isolated Malpighian tubules of the cricket Acheta domesticus. The settings on record: cited from earlier work; for EC50 / Cricket Malpighian tubule fluid secretion Maximum response (%): naturally occurring achetakinins; for EC50: read-out: Cricket (Acheta domesticus) Malpighian tubule fluid secretion EC50; for Cricket Malpighian tubule fluid secretion Maximum response (%): literature reference (6).

Data set [6] concerns angiotensin converting enzyme (ACE) from the housefly Musca domestica. As to conditions: cited from earlier work.
Where [7] appears, read: Lamango et al., Peptides, submitted.

Entries after “also recorded” stand apart in the source; their conditions may differ. Like-named read-outs stand apart in the source and are kept apart here. Ends that are not written are not given here. Peptide text beside a SMILES is read from it. QP = not defined here

On to `CC(C)(NC(=O)[C@H](Cc1ccccc1)NC(=O)[C@@H](N)Cc1ccccc1)C(=O)N[C@@H](Cc1c[nH]c2ccccc12)C(=O)NCC(N)=O` [Phe--Phe--Aib--Trp--Gly--NH2] (HELM PEPTIDE1{F.F.[Aib].W.G.[am]}$$$$V2.0), for which the “hydrolysis by angiotensin converting enzyme (ACE)” value in data set [1] is listed as “complete resistance to ACE; also recorded: complete resistance to hydrolysis”. In addition, the “potency in the Malpighian tubule assay relative to the most potent naturally occurring achetakinin (AK-IV) / endogenous insect kinins” value in data set [2] (comparison of EC50 values) is recorded as “greater potency than the endogenous insect kinins”. The “Cricket Malpighian tubule fluid secretion Maximum response (%)” value in data set [2] is given as 99%. In data set [3], the “potency in the cockroach hindgut myotropic assay relative to the most potent of the achetakinins (AK-IV)” value is given as “roughly half as potent”, the “Cockroach (Leucophaea maderae) hindgut contraction threshold (pM) ± (S.D.)” value (“Cockroach … (S.D.)” below) is recorded as 100 pM and the “threshold activities on the isolated cockroach hindgut bioassay” value (“threshold activities” for short) came to 100 pM. Also, the “potency in the cockroach hindgut myotropic assay relative to the most potent of the achetakinins (AK-IV)” value in data set [3] (listed as first analog) is reported as “one half as potent”.

On to `CC(C)(NC(=O)[C@H](Cc1ccccc1)NC(=O)[C@H](Cc1ccccc1)NC(=O)[C@H](CCCCNC(=O)[C@@H]1CCC(=O)N1)NC(=O)[C@@H]1CCC(=O)N1)C(=O)N[C@@H](Cc1c[nH]c2ccccc12)C(=O)NCC(N)=O` [pGlu--Lys(pGlu)--Phe--Phe--Aib--Trp--Gly--NH2] (HELM PEPTIDE1{[Glp].K.F.F.[Aib].W.G.[am]}|PEPTIDE2{[Glp]}$PEPTIDE1,PEPTIDE2,2:R3-1:R2$$$V2.0), for which, in data set [2], the “Cricket Malpighian tubule fluid secretion Maximum response (%)” value came to 103%. Also, in data set [3], the “potency in the cockroach hindgut myotropic assay relative to the most potent of the achetakinins (AK-IV)” value is on record as “three orders of magnitude less potent”, the “Cockroach … (S.D.)” value is on record as 28,000 pM and the “threshold activities” value was 28000 pM.

On to `CC(C)(NC(=O)[C@H](Cc1ccccc1)NC(=O)[C@H](Cc1ccccc1)NC(=O)[C@H](CCCCN)NC(=O)[C@@H]1CCC(=O)N1)C(=O)N[C@@H](Cc1c[nH]c2ccccc12)C(=O)NCC(N)=O` [pGlu--Lys--Phe--Phe--Aib--Trp--Gly--NH2] (HELM PEPTIDE1{[Glp].K.F.F.[Aib].W.G.[am]}$$$$V2.0), for which the “Cricket Malpighian tubule fluid secretion Maximum response (%)” value in data set [2] was 101%. Besides, in data set [3], the “potency in the cockroach hindgut myotropic assay relative to the most potent of the achetakinins (AK-IV)” value is “an order of magnitude more potent”, the “Cockroach … (S.D.)” value stood at 3.5 pM and the “threshold activities” value is 3.5 pM.

On to “AFHSWG-NH2 [AK-V, A--Phe--His--Ser--Trp--Gly--NH2]”, for which the “Cockroach … (S.D.)” value in data set [4] is 43 pM. The half-maximal effective concentration (EC50) in data set [5] (Coast et al., 1990) is 0.018 nM. Further, the “Cricket Malpighian tubule fluid secretion Maximum response (%)” value in data set [5] was 88%.

For “ALPFSSWG-NH2 [AK-III, ALP--Phe--Ser--Ser--Trp--Gly--NH2]”, the “Cockroach … (S.D.)” value in data set [4] was 270 pM. Besides, in data set [5] (Coast et al., 1990), the EC50 is 0.324 nM. Further, the “Cricket Malpighian tubule fluid secretion Maximum response (%)” value in data set [5] is given as 108%.

As to “AYFSPWG-NH2 [AK-II, AY--Phe--Ser--Pro--Trp--Gly--NH2]”, the “Cockroach … (S.D.)” value in data set [4] is 48 pM. In addition, the concentration giving a half-maximal response (EC50) in data set [5] (Coast et al., 1990) is 0.022 nM. Besides, the “Cricket Malpighian tubule fluid secretion Maximum response (%)” value in data set [5] is recorded as 91%.

On to “DPGFSSWG-NH2 [LK-II, DPG--Phe--Ser--Ser--Trp--Gly--NH2]”, for which the “hydrolysis by ACE” value in data set [6] (setting [7]) is recorded as “hydrolyze”.

Consider “FYPWG-NH2 [Phe--Tyr--Pro--Trp--Gly--NH2]”, for which the “potency in hindgut myotropic assay relative to parent or natural insect kinins” value in data set [4] is recorded as “equipotent with the parent nonapeptide”. Also, the “potency in cricket Malpighian tubule secretion assay relative to parent nonapeptide” value in data set [5] (Coast et al., 1990) is “equipotent with the parent nonapeptide”.

With “KFFPWG-NH2 [Lys--Phe--Phe--Pro--Trp--Gly--NH2]”, in data set [4], the “potency in hindgut myotropic assay relative to parent or natural insect kinins” value is “more active than the pentapeptide core and/or the naturally occurring insect kinins”.

Turning to “NFKFNPWG-NH2 [AK-IV, NFK--Phe--Asn--Pro--Trp--Gly--NH2]”, the “Cockroach … (S.D.)” value in data set [4] is 180 pM. For the same compound, the EC50 in data set [5] (Coast et al., 1990) was 0.024 nM. Also, the “Cricket Malpighian tubule fluid secretion Maximum response (%)” value in data set [5] is reported as 96%.

In the case of “NNANVFYPWG-NH2 [Cus-DP-II, NNANV-Phe--Tyr--Pro--Trp--Gly--NH2]”, the “hydrolysis by ACE” value in data set [6] (setting [7]) is reported as “hydrolyze”.

As to “QP--Phe--His--Ser--Trp--Gly--NH2 ({QP}-FHSWG-NH2; reading uncertain; also: printed as QP--Phe--His--Ser--Trp--Gly--NH2) [Cus-DP-I]”, in data set [6] (setting [7]), the “hydrolysis by ACE” value was “hydrolyze”.

With “SGADFYPWG-NH2 [AK-I, SGAD--Phe--Tyr--Pro--Trp--Gly--NH2]”, in data set [4], the “Cockroach … (S.D.)” value was 82 pM. The EC50 in data set [5] (Coast et al., 1990) is 0.078 nM. Also, in data set [5], the “Cricket Malpighian tubule fluid secretion Maximum response (%)” value is 86%.

Regarding “SKYVSQK-Phe--Phe--Ser--Trp--Gly--NH2 [Cus-DP-III]”, the “hydrolysis by ACE” value in data set [6] is reported as “hydrolyze”.

Values taken from patent publication US5792466A, “Mimetic insect kinin analogs for insect control” (The United States of America, as represented by the …, priority 1996, dated 1998).
